From ChEMBL document CHEMBL5465560, “Selectivity Literature for EUbOPEN Chemogenomic Library” (2024)

Key:
[1] = molecular target: Mitogen-activated protein kinase 14 (Homo sapiens, UniProt Q16539); assay: Selectivity interaction (Radiometric kinase assay (using 10 uM ATP)) EUB0000601a MAPK14
[2] = molecular target: N-lysine methyltransferase SMYD2 (Homo sapiens) (UniProt Q9NRG4); settings: at 1 µM
[3] = molecular target: Beta-1 adrenergic receptor (Homo sapiens, UniProt P08588); assay: Selectivity interaction (GPCR panel (PDSP screen)) EUB0001079a ADRB1; settings: at 10 µM
[4] = system: Epidermal growth factor receptor (Homo sapiens), P00533 [UNDEFINED MUTATION]; assay: Selectivity interaction (KinomeScan (DiscoverX)) EUB0001079a EGFR; settings: at 1 µM
[5] = molecular target: T1, Inhibitor of nuclear factor kappa-B kinase subunit alpha (Homo sapiens) (UniProt O15111); assay: Selectivity interaction (KinomeScan (DiscoverX)) EUB0001079a CHUK; settings: at 1 µM
T1 sequence (whole entry): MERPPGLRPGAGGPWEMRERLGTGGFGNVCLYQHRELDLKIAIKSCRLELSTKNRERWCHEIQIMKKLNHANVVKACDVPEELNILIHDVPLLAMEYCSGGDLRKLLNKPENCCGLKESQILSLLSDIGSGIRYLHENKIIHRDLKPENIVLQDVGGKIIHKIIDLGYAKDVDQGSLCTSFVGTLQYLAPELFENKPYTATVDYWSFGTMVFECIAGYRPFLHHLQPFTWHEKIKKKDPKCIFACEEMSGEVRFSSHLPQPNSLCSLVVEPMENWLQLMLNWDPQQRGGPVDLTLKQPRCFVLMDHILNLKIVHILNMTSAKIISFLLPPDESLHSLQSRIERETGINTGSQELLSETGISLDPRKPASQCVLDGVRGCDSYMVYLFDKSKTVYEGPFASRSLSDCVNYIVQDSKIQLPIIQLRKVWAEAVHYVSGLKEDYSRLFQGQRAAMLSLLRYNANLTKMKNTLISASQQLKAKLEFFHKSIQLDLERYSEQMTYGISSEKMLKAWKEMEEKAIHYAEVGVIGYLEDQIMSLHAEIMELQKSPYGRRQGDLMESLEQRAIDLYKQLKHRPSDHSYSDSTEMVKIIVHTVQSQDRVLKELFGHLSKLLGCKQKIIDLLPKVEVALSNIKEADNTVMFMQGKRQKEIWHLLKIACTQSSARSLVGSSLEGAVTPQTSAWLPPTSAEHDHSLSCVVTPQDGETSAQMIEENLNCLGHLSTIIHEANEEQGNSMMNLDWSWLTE

[6] = molecular target: Dual specificity tyrosine-phosphorylation-regulated kinase 1B (Homo sapiens, UniProt Q9Y463); assay: Selectivity interaction (Enzymatic assay) EUB0001550a DYRK1B
Sequence of Dual specificity tyrosine-phosphorylation-regulated kinase 1B (Q9Y463 whole entry): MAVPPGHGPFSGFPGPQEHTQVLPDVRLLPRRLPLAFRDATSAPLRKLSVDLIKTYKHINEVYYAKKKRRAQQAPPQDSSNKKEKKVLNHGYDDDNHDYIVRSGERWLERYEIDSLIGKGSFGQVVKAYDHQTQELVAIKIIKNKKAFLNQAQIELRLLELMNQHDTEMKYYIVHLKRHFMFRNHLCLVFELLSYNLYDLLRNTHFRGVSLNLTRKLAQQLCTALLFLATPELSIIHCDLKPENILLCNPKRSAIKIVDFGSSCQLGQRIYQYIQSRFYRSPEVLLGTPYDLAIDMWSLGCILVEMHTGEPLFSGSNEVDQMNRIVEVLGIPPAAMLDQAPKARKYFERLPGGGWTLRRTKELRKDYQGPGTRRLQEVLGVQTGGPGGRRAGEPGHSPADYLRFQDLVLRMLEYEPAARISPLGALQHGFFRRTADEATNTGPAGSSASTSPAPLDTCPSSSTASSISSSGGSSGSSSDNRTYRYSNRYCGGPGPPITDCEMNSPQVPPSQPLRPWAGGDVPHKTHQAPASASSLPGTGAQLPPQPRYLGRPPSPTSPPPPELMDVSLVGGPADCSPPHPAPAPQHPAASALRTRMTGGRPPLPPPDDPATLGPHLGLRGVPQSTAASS

[7] = molecular target: T2, Serine/threonine-protein kinase 3 (Homo sapiens) (UniProt Q13188); assay: Selectivity interaction (ActivX KiNativ screen (kinase selectivity in THP-1 cell lysates)) EUB0000639a STK3; type: subcellular; settings: lysate, at 1 µM
T2 sequence (whole entry): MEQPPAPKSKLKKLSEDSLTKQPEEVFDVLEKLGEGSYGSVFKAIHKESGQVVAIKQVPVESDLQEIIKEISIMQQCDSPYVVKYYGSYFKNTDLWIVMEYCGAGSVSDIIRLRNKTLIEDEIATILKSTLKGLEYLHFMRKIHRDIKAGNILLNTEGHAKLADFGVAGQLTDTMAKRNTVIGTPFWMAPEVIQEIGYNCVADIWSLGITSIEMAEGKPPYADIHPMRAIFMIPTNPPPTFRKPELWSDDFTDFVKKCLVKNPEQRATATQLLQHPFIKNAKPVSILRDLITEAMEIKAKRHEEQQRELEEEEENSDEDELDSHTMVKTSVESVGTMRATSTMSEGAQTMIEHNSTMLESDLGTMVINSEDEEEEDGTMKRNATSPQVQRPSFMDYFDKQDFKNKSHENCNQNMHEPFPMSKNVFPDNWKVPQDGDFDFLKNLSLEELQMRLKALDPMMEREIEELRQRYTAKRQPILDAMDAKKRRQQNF

[8] = molecular target: T3, Mitogen-activated protein kinase 12 (Homo sapiens) (UniProt P53778); assay: Selectivity interaction (Kinase screening (Upstate/Millipore)) EUB0000604a MAPK12
T3 sequence (whole entry): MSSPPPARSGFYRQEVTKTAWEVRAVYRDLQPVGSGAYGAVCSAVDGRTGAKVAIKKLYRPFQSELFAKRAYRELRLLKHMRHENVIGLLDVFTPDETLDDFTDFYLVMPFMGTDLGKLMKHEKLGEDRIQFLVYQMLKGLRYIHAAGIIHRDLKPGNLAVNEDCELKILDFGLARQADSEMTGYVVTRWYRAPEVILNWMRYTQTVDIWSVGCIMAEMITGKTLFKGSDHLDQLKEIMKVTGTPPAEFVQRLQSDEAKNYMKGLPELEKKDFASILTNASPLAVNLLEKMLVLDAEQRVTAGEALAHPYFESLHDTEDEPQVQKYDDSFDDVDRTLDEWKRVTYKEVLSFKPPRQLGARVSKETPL

[9] = molecular target: Cyclin-dependent kinase 13 (Homo sapiens, UniProt Q14004); assay: Selectivity interaction (KinomeScan (DiscoverX)) EUB0000045b CDK13
Sequence of Cyclin-dependent kinase 13 (Q14004 whole entry, looked up): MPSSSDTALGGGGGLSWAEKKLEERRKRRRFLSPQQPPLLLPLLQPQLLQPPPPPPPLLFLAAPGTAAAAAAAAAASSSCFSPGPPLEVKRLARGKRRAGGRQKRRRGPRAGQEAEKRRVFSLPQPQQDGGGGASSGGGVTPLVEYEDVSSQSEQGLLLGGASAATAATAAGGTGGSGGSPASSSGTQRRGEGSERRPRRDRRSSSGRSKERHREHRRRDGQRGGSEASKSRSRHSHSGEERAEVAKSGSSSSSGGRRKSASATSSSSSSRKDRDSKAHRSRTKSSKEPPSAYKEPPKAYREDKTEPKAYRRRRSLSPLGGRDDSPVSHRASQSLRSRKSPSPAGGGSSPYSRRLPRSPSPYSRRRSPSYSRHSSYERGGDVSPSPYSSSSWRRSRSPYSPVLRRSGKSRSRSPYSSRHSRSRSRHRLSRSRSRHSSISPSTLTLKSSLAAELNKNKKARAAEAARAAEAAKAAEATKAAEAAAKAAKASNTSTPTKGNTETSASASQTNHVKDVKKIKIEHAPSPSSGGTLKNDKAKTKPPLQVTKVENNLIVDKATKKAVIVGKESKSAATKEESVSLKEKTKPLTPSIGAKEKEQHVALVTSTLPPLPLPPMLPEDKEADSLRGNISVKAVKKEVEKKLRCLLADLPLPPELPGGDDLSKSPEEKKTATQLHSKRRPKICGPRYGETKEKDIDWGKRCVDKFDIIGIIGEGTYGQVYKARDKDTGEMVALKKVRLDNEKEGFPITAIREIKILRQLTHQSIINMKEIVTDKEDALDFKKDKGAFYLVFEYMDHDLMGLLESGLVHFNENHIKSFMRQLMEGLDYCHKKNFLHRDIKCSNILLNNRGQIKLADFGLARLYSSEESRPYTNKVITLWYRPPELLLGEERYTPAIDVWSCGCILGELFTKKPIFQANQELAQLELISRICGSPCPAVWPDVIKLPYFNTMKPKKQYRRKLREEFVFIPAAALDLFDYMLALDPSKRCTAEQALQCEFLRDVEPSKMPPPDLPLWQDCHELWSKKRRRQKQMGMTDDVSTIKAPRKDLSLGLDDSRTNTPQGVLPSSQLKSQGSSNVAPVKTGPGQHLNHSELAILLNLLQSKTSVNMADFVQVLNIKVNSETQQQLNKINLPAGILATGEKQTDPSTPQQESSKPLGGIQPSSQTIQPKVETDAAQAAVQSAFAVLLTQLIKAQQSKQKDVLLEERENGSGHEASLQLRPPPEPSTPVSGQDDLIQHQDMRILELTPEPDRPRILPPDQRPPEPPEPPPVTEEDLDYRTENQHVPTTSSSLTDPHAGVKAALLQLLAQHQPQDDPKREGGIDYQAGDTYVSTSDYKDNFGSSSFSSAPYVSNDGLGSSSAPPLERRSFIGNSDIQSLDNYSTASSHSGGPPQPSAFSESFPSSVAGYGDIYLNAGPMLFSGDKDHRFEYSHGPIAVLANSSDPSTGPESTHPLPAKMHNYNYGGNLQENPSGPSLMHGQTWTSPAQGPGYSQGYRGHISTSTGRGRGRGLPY

[10] = molecular target: Activin receptor type-2A (Homo sapiens) (UniProt P27037); assay: Selectivity interaction (KinomeScan (DiscoverX)) EUB0000618a ACVR2A; settings: at 10 µM
[11] = molecular target: Ribosomal protein S6 kinase alpha-5 (Homo sapiens) (UniProt O75582); assay: Selectivity interaction (KinomeScan (DiscoverX)) EUB0000618a RPS6KA5; settings: at 10 µM
[12] = molecular target: T3, Mitogen-activated protein kinase 12 (Homo sapiens); settings: at 10 µM
[13] = molecular target: Serine/threonine-protein kinase 10 (Homo sapiens) (UniProt O94804); assay: Selectivity interaction (Upstate Kinase Profiler service (Millipore)) EUB0000056c STK10; settings: at 1 µM
[14] = molecular target: Myosin light chain kinase 2, skeletal/cardiac muscle (Homo sapiens) (UniProt Q9H1R3); assay: Selectivity interaction (SelectScreen profiling (Invitrogen)) EUB0000607a MYLK2; settings: at 2 µM
Sequence of Myosin light chain kinase 2, skeletal/cardiac muscle (Homo sapiens) (Q9H1R3 whole entry): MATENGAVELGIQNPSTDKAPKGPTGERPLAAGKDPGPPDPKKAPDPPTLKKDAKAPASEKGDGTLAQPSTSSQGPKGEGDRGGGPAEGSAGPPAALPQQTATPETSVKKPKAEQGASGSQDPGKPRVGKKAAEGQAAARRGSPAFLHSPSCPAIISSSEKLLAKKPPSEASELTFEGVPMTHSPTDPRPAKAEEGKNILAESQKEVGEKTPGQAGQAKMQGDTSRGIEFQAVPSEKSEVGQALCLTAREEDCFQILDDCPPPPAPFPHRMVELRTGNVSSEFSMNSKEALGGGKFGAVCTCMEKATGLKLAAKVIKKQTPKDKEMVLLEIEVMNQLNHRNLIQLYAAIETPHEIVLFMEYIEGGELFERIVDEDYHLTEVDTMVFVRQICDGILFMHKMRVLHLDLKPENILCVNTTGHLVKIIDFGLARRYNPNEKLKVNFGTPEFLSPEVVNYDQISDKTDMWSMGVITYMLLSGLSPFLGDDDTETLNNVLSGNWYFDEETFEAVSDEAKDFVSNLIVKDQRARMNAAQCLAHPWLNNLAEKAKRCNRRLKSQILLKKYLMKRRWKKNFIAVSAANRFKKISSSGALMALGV

[15] = system: Platelet-derived growth factor receptor alpha (Homo sapiens), P16234 [V561D]; assay: Selectivity interaction (Kinase panel (Z-LYTE Assay)) EUB0001632a PDGFRA; settings: at 10 µM
Sequence of Platelet-derived growth factor receptor alpha (Homo sapiens), P16234 [V561D] (P16234 whole entry V561D): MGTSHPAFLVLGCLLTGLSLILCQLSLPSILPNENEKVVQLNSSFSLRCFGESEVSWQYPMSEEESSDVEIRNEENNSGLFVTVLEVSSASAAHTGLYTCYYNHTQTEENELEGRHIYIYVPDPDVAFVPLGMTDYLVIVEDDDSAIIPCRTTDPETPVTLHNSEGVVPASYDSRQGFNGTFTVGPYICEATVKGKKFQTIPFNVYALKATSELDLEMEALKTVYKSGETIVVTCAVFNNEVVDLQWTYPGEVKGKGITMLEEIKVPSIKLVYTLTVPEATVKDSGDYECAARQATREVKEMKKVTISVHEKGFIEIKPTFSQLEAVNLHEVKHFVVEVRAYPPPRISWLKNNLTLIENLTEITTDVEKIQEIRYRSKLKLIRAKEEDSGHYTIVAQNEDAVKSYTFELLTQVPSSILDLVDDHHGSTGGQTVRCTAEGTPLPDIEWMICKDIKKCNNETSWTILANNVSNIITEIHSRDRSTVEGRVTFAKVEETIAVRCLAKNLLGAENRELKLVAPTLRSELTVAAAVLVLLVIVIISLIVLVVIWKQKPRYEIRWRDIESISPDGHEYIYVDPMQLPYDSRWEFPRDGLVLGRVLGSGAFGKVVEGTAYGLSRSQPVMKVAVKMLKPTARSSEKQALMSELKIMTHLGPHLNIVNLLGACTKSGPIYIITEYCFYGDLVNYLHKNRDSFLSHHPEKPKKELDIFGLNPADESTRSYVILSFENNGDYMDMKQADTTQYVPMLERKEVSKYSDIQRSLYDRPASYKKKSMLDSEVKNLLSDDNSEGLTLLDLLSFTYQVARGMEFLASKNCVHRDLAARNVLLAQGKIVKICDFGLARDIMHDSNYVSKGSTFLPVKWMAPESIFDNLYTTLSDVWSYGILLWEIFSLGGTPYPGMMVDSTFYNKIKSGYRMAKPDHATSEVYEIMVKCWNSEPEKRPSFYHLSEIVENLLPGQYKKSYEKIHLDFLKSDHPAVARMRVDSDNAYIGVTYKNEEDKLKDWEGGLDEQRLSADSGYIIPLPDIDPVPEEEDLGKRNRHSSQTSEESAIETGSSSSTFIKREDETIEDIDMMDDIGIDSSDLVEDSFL

[16] = molecular target: Protein-tyrosine kinase 2-beta (Homo sapiens) (UniProt Q14289); assay: Selectivity interaction (ProQinase) EUB0000171b PTK2B
Sequence of Protein-tyrosine kinase 2-beta (Homo sapiens) (Q14289 whole entry, looked up): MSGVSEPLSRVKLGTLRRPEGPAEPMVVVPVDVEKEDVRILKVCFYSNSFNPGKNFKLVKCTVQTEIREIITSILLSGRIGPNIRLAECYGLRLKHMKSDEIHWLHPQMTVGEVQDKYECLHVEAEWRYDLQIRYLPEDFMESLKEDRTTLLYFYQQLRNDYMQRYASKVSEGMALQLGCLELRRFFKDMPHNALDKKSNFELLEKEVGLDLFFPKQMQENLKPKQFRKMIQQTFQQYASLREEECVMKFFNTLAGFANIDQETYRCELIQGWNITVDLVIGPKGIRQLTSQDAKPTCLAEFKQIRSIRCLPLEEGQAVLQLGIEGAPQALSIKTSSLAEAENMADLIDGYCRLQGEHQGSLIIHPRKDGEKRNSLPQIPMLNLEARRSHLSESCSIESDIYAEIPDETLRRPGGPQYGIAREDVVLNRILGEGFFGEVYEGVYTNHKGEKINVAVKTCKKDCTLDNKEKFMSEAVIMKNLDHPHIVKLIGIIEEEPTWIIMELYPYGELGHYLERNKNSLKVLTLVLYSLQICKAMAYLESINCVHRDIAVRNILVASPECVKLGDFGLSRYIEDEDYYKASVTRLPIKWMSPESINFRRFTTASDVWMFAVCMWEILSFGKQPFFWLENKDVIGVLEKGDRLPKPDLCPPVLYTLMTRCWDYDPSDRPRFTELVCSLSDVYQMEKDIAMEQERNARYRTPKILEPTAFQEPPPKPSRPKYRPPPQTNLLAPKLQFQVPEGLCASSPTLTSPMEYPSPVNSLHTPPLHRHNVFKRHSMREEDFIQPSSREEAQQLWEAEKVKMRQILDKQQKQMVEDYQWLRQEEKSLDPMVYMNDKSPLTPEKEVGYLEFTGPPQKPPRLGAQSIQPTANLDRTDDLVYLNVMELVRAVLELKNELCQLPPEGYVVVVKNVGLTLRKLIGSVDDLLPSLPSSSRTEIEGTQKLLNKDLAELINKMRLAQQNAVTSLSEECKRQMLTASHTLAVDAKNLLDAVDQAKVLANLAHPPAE

## CCc1cc(Nc2nccc(-c3c(-c4ccc(OC)c(C(=O)Nc5c(F)cccc5F)c4)nc4ccccn34)n2)c(OC)cc1N1CCC(N2CCN(S(C)(=O)=O)CC2)CC1
[1]
  IC50: > 11000 nM

## CNCCN1CCC(c2cc(CN(C)C(=O)c3cccc(Oc4ccccc4)c3)ccn2)CC1
[2]
  % activity: > 90%

## Nc1cnc(N2CCc3cc(S(=O)(=O)Nc4c(F)cc(Cl)cc4F)cc(N4CCCC4=O)c32)nc1 [TP-020n]
[3]
  % of inhibition: 8.84%
[4]
  % of control: 71%
[5]
  % of control: 100%

## CN(C)CC#Cc1ccc2[nH]c3c(c2c1)-c1nc(N)ncc1CCC3
[6]
  IC50: 380 nM

## CC[C@@H]1[C@H](F)C(=O)N[C@@H]1COc1nccc2cc(C(N)=O)c(OC)cc12 [ZIMLOVISERTIB]
[7]
  % of inhibition: -8%

## Cc1cnc(Nc2ccc(F)cc2Cl)nc1-c1c[nH]c(C(=O)N[C@H](CO)c2cccc(Cl)c2)c1
[8]
  % of inhibition: 56%

## C=CC(=O)Nc1cc(-n2c(=O)ccc3cnc4ccc(-c5ccc(NS(C)(=O)=O)cc5)cc4c32)ccc1C
[9]; at 1 µM
  % of control: 100%
[9]; at 10 µM
  % of control: 100%

## O[C@H]1CC[C@H](Nc2ncc3nc(Nc4c(F)cc(F)cc4F)n([C@H]4CCOC4)c3n2)CC1
[10]
  % of control: 92%
[11]
  % of control: 100%

## Cc1cc([C@@H](C)Nc2ccccc2C(=O)O)c2nc(N3CCOCC3)cc(=O)n2c1 [AZD-6482]
[12]
  % of control: 94%

## Cc1ccc(-c2ccc3c(ccc4sc5c(c43)NC[C@@H](C)NC5=O)n2)cn1
[13]
  % of inhibition: 47%

## CNC(=O)Nc1ccc(-c2nc(N3CC4CCC(C3)O4)c3cnn(C4CCC5(CC4)OCCO5)c3n2)cc1
[14]
  % of inhibition: 8%

## Cn1cc(-n2cnc3c(NCc4nc5cc(Cl)c(Cl)cc5[nH]4)nc(N4CCOCC4)nc32)cn1
[15]
  % of control: 19.4%

## C=CC(=O)Nc1cccc(C(=O)Nc2ccc(Nc3cc(-c4[nH]c(SC)nc4C)ccn3)cc2)c1
[16]; at 1 µM
  % of control: 91%
[16]; at 5 µM
  % of control: 96%
